Measured values taken from US5336485A, “Method for protecting animals against tacrine induced cytotoxic injury using sterol compounds” (priority 1993, dated 1994).
Structures can show the parent of a compound that is named as a salt.

Tests used:
[1] = system: liver; experiment: CCl4 induced hepatotoxicity in rats (serum AST/ALT); assay type: in vivo, rat
Method in brief: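 Male Sprague-Dawley rats received test compounds i.p. at 100 mg/kg 20–24 h before oral CCl4 (2.9 g/kg or 1 g/kg). Serum AST and ALT were measured 48 h after CCl4 challenge.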

[2] = system: male Sprague-Dawley rats; experiment: CCl4 induced lethality in rats; assay type: in vivo, rat; details: for Survival after CCl4 treatment: 100 mg/kg ip 24 h prior, […] CCl4 oral
[3] = system: male Sprague-Dawley rats; experiment: Global liver ischemia/reperfusion-induced lethality in rats; assay type: in vivo, rat; details: ip 20 h prior, global ischemia 60 min; CS 100 mg/kg; cholesterol 64 + tris succinate 100 mg/kg
Experimental: 20 hours prior to global occlusion, one group of 10 rats was provided with 64 mg cholesterol/kg body weight and 100 mg tris succinate/kg body weight by i.p. injection, and another group of 10 rats was provided with 100 mg cholesteryl succinate/kg body weight. A control group of rats was only partially occluded for the one hour period. Ninety percent of the rats pretreated with cholesteryl succinate tris salt survived while only 10% of those pretreated with the combination of cholesterol and tris succinate survived. Table 22 of a partial ischemia study where male Sprague-Dawley rats were subjected to occlusion of the blood supply to the left lateral and median lobes of the liver for 60 minutes followed by reperfusion for 24 hours. During this time, the normal blood supply to the other lobes of the liver was maintained. […] Serum was obtained for AST and ALT measurements.
^a Global (total) or partial liver ischemia was induced 20 hours

[4] = system: L1210 murine leukemia cells; experiment: Inhibition of L1210 leukemia cell growth in vitro; assay type: cell-based, mouse
Experimental: Similar in vitro experiments were conducted with cholesteryl succinate tris salt and alpha-TS tris salt.

[5] = system: liver; experiment: Acetaminophen-induced hepatotoxicity in rats (AST/ALT); assay type: in vivo, rat
Experimental: In vivo experiments were performed to determine if alpha-TS administration protects the liver from the hepatotoxic effects of acetaminophen. Acetaminophen is a commonly used analgesic that is metabolized to a reactive intermediate. […] The other group of male Sprague-Dawley rats received only the acetaminophen challenge. Forty eight hours after the challenge the rats were sacrificed and the levels of aspartate aminotransferase (AST) and alanine aminotransferase (ALT) were measured.
FIGS. 10 and 11 show the results of in vivo experiments where male Sprague-Dawley rats were given an oral dose of 15 or 30 mg THA/kg body weight, respectively. In the experiments, one group of rats was provided with an i.p. dose of 100 mg cholesteryl succinate tris salt/kg body weight 20 hours prior to the THA challenge, another group of rats only received the THA challenge, and the last group of rats acted as a control and were not challenged. The serum AST levels were determined with respect to time after the THA challenge.

[6] = system: human neuroblastoma cells; details: 10 μM; cited from earlier work
[7] = system: mouse melanoma cells B-16; details: cited from earlier work
[8] = system: canine hepatocytes; experiment: EMS-induced cytotoxicity in canine hepatocytes; assay type: cell-based; details: 25 μM, 50 mM EMS
[9] = 50 mg/kg ip, 48 h after 1 g/kg CCl4 (Table 28)
[10] = 100 mg/kg ip 20 h prior, 48 h after 1 g/kg CCl4 (Table 20)
[11] = 100 mg/kg ip (dihydrocholesterol 80 + sodium sulfate 30 mg/kg), 48 h after 1 g/kg CCl4 (Table 35)
[12] = 100 mg/kg ip, 30 min after CCl4 1 g/kg (Table 29)
[13] = 100 mg/kg ip, 30 min prior to CCl4 1 g/kg (Table 29)
[14] = 100 mg/kg ip, 20 hours prior to CCl4 1 g/kg (Table 29)
[15] = 100 mg/kg ip, 48 h after 1 g/kg CCl4 (Table 28)
[16] = 100 mg/kg ip, 48 h after 1 g/kg CCl4 (Table 31)
[17] = 100 mg/kg ip, 48 h after 1 g/kg CCl4 (Table 37)
[18] = 100 mg/kg ip, 48 h after 1 g/kg CCl4 (Table 40)
[19] = 100 mg/kg ip, PEG 400 vehicle, 48 h after 1 g/kg CCl4 (Table 34)
[20] = 100 mg/kg ip, immediately prior to CCl4 1 g/kg (Table 29)
[21] = 100 mg/kg oral 20 h prior, 48 h after 1 g/kg CCl4 (Table 20)
[22] = 200 mg/kg ip, 48 h after 1 g/kg CCl4 (Table 28)
[23] = PEG 400 vehicle, ip 20 h prior, 24 hrs after 2 g/kg CCl4 (Table 32)
[24] = PEG 400 vehicle, ip 20 h prior, 48 hrs after 2 g/kg CCl4 (Table 32)
[25] = PEG 400 vehicle, ip 20 h prior, 72 hrs after 2 g/kg CCl4 (Table 32)
[26] = 100 mg/kg ip 20 hrs prior, 48 h after 2 g/kg AP (Table 23)
[27] = 100 mg/kg ip 20 h prior, 48 h after 1 g/kg CCl4 (Table 27), listed as Alpha Tocopheryl Succinate free acid
[28] = rat plasma, 100 mg/kg ip 24 h prior, 48 h after […] CCl4
[29] = 100 mg/kg ip 24 h prior, acetaminophen 2.5 g/kg

## CC(C)CCC[C@@H](C)[C@H]1CC[C@H]2[C@@H]3CC=C4C[C@@H](OC(=O)CCC(=O)O)CC[C@]4(C)[C@H]3CC[C@]12C [Cholesteryl Succinate tris salt]
[1]; [9]
  ALT: 0.16 ± 0.11 10^3 units/L
  AST: 0.56 ± 0.35 10^3 units/L
[1]; 100 mg/kg ip 20 h prior, 24 hrs after 2 g/kg CCl4 (Table 26), tris salt
  Serum AST Levels: 0.57 ± 0.38 10^3 units/L
[1]; [10]
  ALT: 0.122 ± 0.034 10^3 units/L
  AST: 0.41 ± 0.08 10^3 units/L
[1]; 100 mg/kg ip 20 h prior, 48 hrs after 2 g/kg CCl4 (Table 26), tris salt
  Serum AST Levels: 0.19 ± 0.07 10^3 units/L
[1]; [11]
  ALT: 0.04 ± 0.02 10^3 units/L
  AST: 0.22 ± 0.06 10^3 units/L
[1]; [12]
  ALT: 1.50 ± 0.79 10^3 units/L
  AST: 7.87 ± 4.09 10^3 units/L
[1]; [13]
  ALT: 2.12 ± 1.43 10^3 units/L
  AST: 9.09 ± 4.38 10^3 units/L
[1]; [14]
  ALT: 0.04 ± 0.01 10^3 units/L
  AST: 0.12 ± 0.02 10^3 units/L
[1]; [15]
  ALT: 0.04 ± 0.02 10^3 units/L
  AST: 0.22 ± 0.06 10^3 units/L
[1]; [16]
  ALT: 0.02 ± 0 10^3 units/L
  AST: 0.10 ± 0.03 10^3 units/L
[1]; [17]
  ALT: 0.09 ± 0.01 10^3 units/L
  AST: 0.21 ± 0.03 10^3 units/L
[1]; [18]
  ALT: 0.04 ± 0.01 10^3 units/L
  AST: 0.12 ± 0.02 10^3 units/L
[1]; [19]
  ALT: 0.07 ± 0.03 10^3 units/L
  AST: 0.29 ± 0.22 10^3 units/L
[1]; [20]
  ALT: 1.12 ± 1.38 10^3 units/L
  AST: 6.69 ± 1.87 10^3 units/L
[1]; 100 mg/kg ip, 48 h after 1.0 g/kg CCl4
  SGOT Levels: 0.10 ± 0.03 10^3 units/L
[1]; [21]
  ALT: 4.09 ± 1.191 10^3 units/L
  AST: 12.51 ± 41.31 10^3 units/L
[1]; [22]
  ALT: 0.03 ± 0.01 10^3 units/L
  AST: 0.16 ± 0.08 10^3 units/L
[1]; [23]
  Serum AST Levels: .19 ± .10 10^3 units/L
[1]; [24]
  Serum AST Levels: .10 ± .02 10^3 units/L
[1]; [25]
  Serum AST Levels: .10 ± .02 10^3 units/L
[1]; Rattus norvegicus, ip, 48 h, read-out: % Hepatoprotection
  inhibition in vivo at 100 mg/kg: 100%
[1]; rats, serum enzyme levels
  protection against CCl4 hepatotoxicity (in words): complete protection
[2]
  Survival after CCl4 treatment: Yes
[3]
  % Survival: 90%
[4]
  growth rate of L1210 cells (FIG. 7): significantly suppress the growth rate of L1210 cells
[5]; [26]
  Serum ALT Level: 158 ± 77 Units/L
  Serum AST Level: 785 ± 495 Units/L

## Cc1c(C)c2c(c(C)c1OC(=O)CCC(=O)O)CC[C@@](C)(CCC[C@H](C)CCC[C@H](C)CCCC(C)C)O2 [alpha-TS, d-alpha-tocopheryl succinate]
[1]; [27]
  ALT: 1.08 ± 0.23 10^3 units/L
  AST: 2.06 ± 0.53 10^3 units/L
[1]; [23]
  Serum AST Levels: .38 ± .15 10^3 units/L
[1]; [24]
  Serum AST Levels: .39 ± .22 10^3 units/L
[1]; [25]
  Serum AST Levels: .14 ± .06 10^3 units/L
[1]; [28]
  ALT: 631 ± 17 Units/L
  AST: 3,430 ± 1500 Units/L
[6]
  tumor cell growth: inhibits tumor cell growth
[7]; 10 μM
  tumor cell growth: inhibits tumor cell growth
[7]
  morphological differentiation: induce morphological differentiation
[2]
  Survival after CCl4 treatment: Yes
[2]; 100 mg/kg ip (Table 5)
  Protection from CCl4: Yes
[2]; 100 mg/kg ip, 1 hour after CCl4 and daily thereafter
  Days Survived after CCl4: 2 days
[2]; 100 mg/kg ip, 1 hour prior and daily thereafter
  Days Survived after CCl4: > 7 days
[2]; 100 mg/kg ip, 24 h prior, CCl4 3.8 g/kg
  Days Survived After CCl4 Treatment: > 7 days
[2]; 100 mg/kg ip, 24 h prior, CCl4 5.0 g/kg
  Days Survived After CCl4 Treatment: 2 days
[2]; 100 mg/kg ip, 24 h prior, CCl4 […]
  Days Survived After CCl4 Treatment: > 7 days
[2]; 100 mg/kg ip, single dose 24 h prior to CCl4 […]
  Days Survived after CCl4: > 7 days
[2]; 100 mg/kg oral
  cytoprotection against CCl4 lethality: not observed
[2]; 100 mg/kg oral (Table 5)
  Protection from CCl4: No
[2]; 100 mg/kg oral, 24 h prior, CCl4 2.2 g/kg
  Days Survived After CCl4 Treatment: > 7 days
[2]; 100 mg/kg oral, 24 h prior, CCl4 3.8 g/kg
  Days Survived After CCl4 Treatment: 2 days
[2]; 100 mg/kg oral, 24 h prior, CCl4 5.0 g/kg
  Days Survived After CCl4 Treatment: 2 days
[2]; 100 mg/kg oral, 24 h prior, CCl4 […]
  Days Survived After CCl4 Treatment: 3 days
[2]; 25 m/kg, single dose 24 h prior
  Days Survived After CCl4 Treatment: > 7 days
[2]; single dose
  incubation time required for cytoprotection: greater than 12 hours
[4]; Mus musculus, L1210, free acid, 72 hours, read-out: concentration that significantly suppresses growth rate of L1210 cells
  minimal effective concentration: > 100 µM
[5]; [29]
  ALT: 432 ± 188 Units/L
  AST: 1,659 ± 607 Units/L
[8]
  protection from lethal effects of EMS: protected both rat and canine hepatocytes from the lethal effects
